We go through one compound from patent US11806342B2, “Diiodohydroxyquinoline for the treatment of clostridium difficile infection” (Purdue Research Foundation, priority 2019, dated 2023).

Each structure is given as a SMILES string. Converted amounts (≈) assume the structure as drawn.

One test relates to C. difficile ATCC 43255. The test is described as follows: Initial screening of antiparasitic drugs, broth microdilution MIC. The class given is cell-based, Clostridium difficile. The note with it: Clostridioides difficile, ATCC43255; initial screening, C. difficile ATCC 43255; read-out: MIC. On the procedure:
C. difficile strains were grown anaerobically on brain heart infusion supplemented (BHIS) agar plates at 37° C. for 48 hours. Afterwards, a bacterial solution equivalent to 0.5 McFarland standard was prepared and diluted in (BHIS) broth to achieve a bacterial concentration of about 5×10^5 CFU/mL. Drugs were added and serially diluted along the plates. Plates were then, incubated anaerobically at 37° C. for 48 hours. MICs reported in Table (1) are the minimum concentrations of the drugs that could completely suppress the visual growth of bacteria.
A general note: Broth dilution looks for growth in wells or tubes with falling amounts of substance.

A further test has as its system C. difficile ATCC 9689. The experiment in a line: MIC and MBC, broth microdilution. The class given is cell-based, Clostridium difficile. The settings on record: Clostridioides difficile, ATCC9689; C. difficile ATCC 9689; read-out: MBC. On the procedure:
(§1) MIC50 and MIC90 are the minimum concentration of each agent that inhibited growth of 50% and 90% of the tested isolates, respectively. The minimum bactericidal concentration (MBC) of these drugs was tested by plating 5 μL from wells with no growth onto BHIS agar plates. The MBC was categorized as the lowest concentration that reduced bacterial growth by 99.9% MIC50 and MIC90 are the minimum concentration of each agent that inhibited the growth of 50% and 90% of the tested isolates, respectively. The minimum bactericidal concentration (MBC) of these drugs was tested by plating 5 μL from wells with no growth onto BHIS agar plates. The MBC was categorized as the lowest concentration that reduced bacterial growth by 99.9% [29-31].

A further test deals with C. difficile P24. The test is described as follows: MIC and MBC, broth microdilution. The class given is cell-based, Clostridium difficile. The settings on record: Clostridioides difficile; C. difficile P24; read-out: MBC. As for the experimental part: as §1
In test [1] the test system is 38 tested C. difficile strains. The test is described as follows: MIC and MBC over the panel of clinical isolates (MIC50, MIC90, range). The class given is cell-based, Clostridium difficile. As for the experimental part:
as §1

Another test deals with Bacteroides dorei HM-29. The test is described as follows: MIC against normal gut microflora, broth microdilution. The class given is cell-based. The settings on record: Phocaeicola dorei, HM29; Bacteroides dorei HM-29; read-out: MIC. As for the experimental part:
(§2) In vitro antimicrobial evaluation of diiodohydroxyquinoline against normal microflora. The broth microdilution assay was utilized to determine the MICs of DIHQ and control antibiotics against commensal organisms that compose he human gut microflora, as described elsewhere. A bacterial solution equivalent to 0.5 McFarland standard was prepared and diluted in BHIS broth (for Bifidobacterium and Bacteroides) or in MRS broth (for Lactobacillus) to achieve a bacterial concentration of about 5×10^5 CFU/mL. Then, drugs were added and serially diluted along the plates.

The subject of a further test is Bacteroides dorei HM-717. The test is described as above. The class given is cell-based. The note with it: Phocaeicola dorei, HM717; Bacteroides dorei HM-717; read-out: MIC. On the procedure:
as §2

The subject of another test is Bacteroides dorei HM-718. Described as above. The class given is cell-based. The note with it: Phocaeicola dorei, HM718; Bacteroides dorei HM-718; read-out: MIC. As for the experimental part: as §2
In the next test the test system is Bacteroides dorei HM-719. The description is as above. The class given is cell-based. The settings on record: Phocaeicola dorei, HM719; Bacteroides dorei HM-719; read-out: MIC. As for the experimental part: as §2
Test [2] concerns Bacteroides fragilis HM-709. The description is as above. The settings on record: HM709; Bacteroides fragilis HM-709; read-out: MIC. The class given is cell-based. As for the experimental part: as §2
Test [3] concerns Bacteroides fragilis HM-710. Described as above. The class given is cell-based. The note with it: HM710; Bacteroides fragilis HM-710; read-out: MIC. On the procedure:
as §2

In test [4] the test system is Bacteroides fragilis HM-711. The description is as above. The class given is cell-based. The settings on record: HM711; Bacteroides fragilis HM-711; read-out: MIC. On the procedure:
as §2

For test [5], the system named is Bacteroides fragilis HM-714. Described as above. The class given is cell-based. The note with it: HM714; Bacteroides fragilis HM-714; read-out: MIC. On the procedure:
as §2

Test [6] concerns Bifidobacterium adolescentis HM-633. The description is as above. The class given is cell-based. The settings on record: HM633; Bifidobacterium adolescentis HM-633; read-out: MIC. On the procedure: as §2
Test [7] relates to Bifidobacterium angulatum HM-1189. The description is as above. The class given is cell-based. The note with it: HM1189; Bifidobacterium angulatum HM-1189; read-out: MIC. As for the experimental part: as §2
Test [8] concerns Bifidobacterium breve HM-1120. The description is as above. The note with it: HM1120; Bifidobacterium breve HM-1120; read-out: MIC. The class given is cell-based. On the procedure:
as §2

In test [9] the test system is Bifidobacterium breve HM-411. The description is as above. The note with it: HM411; Bifidobacterium breve HM-411; read-out: MIC. The class given is cell-based. On the procedure:
as §2

Test [10] deals with Bifidobacterium longum HM-845. The test is described as above. The class given is cell-based. The note with it: HM845; Bifidobacterium longum HM-845; read-out: MIC. As for the experimental part:
as §2

Test [11] concerns Bifidobacterium longum HM-847. The description is as above. The class given is cell-based. The note with it: HM847; Bifidobacterium longum HM-847; read-out: MIC. As for the experimental part:
as §2

The subject of test [12] is Lactobacillus casei ATCC 334. Described as above. The class given is cell-based. The note with it: Lacticaseibacillus casei, ATCC334; Lactobacillus casei ATCC 334; read-out: MIC. As for the experimental part: as §2
For test [13], the system named is Lactobacillus crispatus HM-371. The test is described as above. The class given is cell-based. The settings on record: HM371; Lactobacillus crispatus HM-371; read-out: MIC. As for the experimental part: as §2
The subject of test [14] is Lactobacillus reuteri HM-102. Described as above. The class given is cell-based. The settings on record: Limosilactobacillus reuteri, HM102; Lactobacillus reuteri HM-102; read-out: MIC. On the procedure: as §2

In the case of `Cc1ncc([N+](=O)[O-])n1CCO` [Metronidazole, metronidazole], the MIC (as a rule, the lowest concentration that inhibits growth of the organism) was 0.25 µg/mL (≈ 1.46 µM) with C. difficile ATCC 43255; not above 1 µg/mL in the test with Bacteroides dorei HM-29; not above 1 µg/mL with Bacteroides dorei HM-717; not above 1 µg/mL in the test on Bacteroides dorei HM-718; not above 1 µg/mL with Bacteroides dorei HM-719; 2 µg/mL (≈ 11.7 µM) in [2]. Besides, the MIC was 2 µg/mL (≈ 11.7 µM) in test [3]; not above 1 µg/mL in [4]; not above 1 µg/mL in test [5]; not above 1 µg/mL in test [6]; not above 1 µg/mL in test [7]; not above 1 µg/mL in [8]. Moreover, the MIC in test [9] was 2 µg/mL (≈ 11.7 µM); in test [10], not above 1 µg/mL; in test [11], not above 1 µg/mL; in test [12] it was 16 µg/mL (≈ 93.5 µM); in test [13], more than 128 µg/mL; in test [14], more than 128 µg/mL. The MBC in the test with C. difficile ATCC 9689 and with C. difficile P24 was 0.25 µg/mL (≈ 1.46 µM) throughout. Further, the MIC90 – broadly, an inhibitory concentration at the 90% level, which refers to growth in some studies and to a panel of isolates in others – in test [1] (Clostridioides difficile, concentration inhibiting growth of 90% of the tested isolates, read-out: MIC90) was 0.25 µg/mL (≈ 1.46 µM). In addition, the MIC range in test [1] (over the 38 tested C. difficile strains) was 0.06 to 0.5 µg/mL.
